{"source": "patent US20130324605A1", "about": "“USES OF CIMIRACEMATE A AND RELATED COMPOUNDS FOR TREATING INFLAMMATION AND MODULATING IMMUNE RESPONSES” (VERSITECH LIMITED, priority 2010, published 2013)", "key": {"[1]": {"test_system": "LPS-induced TNF-α protein production", "assay": "LPS-induced TNF-α production in primary blood macrophages (ELISA)", "assay_type": "cell-based", "conditions": "Homo sapiens, Macrophage, PBMac", "description": "FIGS. 6A-6B show inhibition of LPS-induced TNF-α production by B22EES1-8-3 and dexamethasone. PBMac were incubated with (A) 140 μM B22EES1-8-3 or (B) 1.3 or 5.1 μM dexamethasone (Dex) for 24 hr prior to the addition of 1 ng/mL and 10 ng/mL LPS for another 24 hr. The culture supernatants were collected and assayed for TNF-α by ELISA. The results shown were the mean values±standard derivation (S.D.) of 6 independent experiments, with cells obtained from different donors. * P<0.05, compared with the corresponding control.\nCell Culture and Primary Blood Macrophage Isolation Human peripheral blood monocytic cells (PBMC) were isolated from the buffy coat of healthy donor blood supplied by Hong Kong Red Cross by Ficoll-Paque (Amersham Pharmacia Biotech, Piscataway, N.J.) density gradient centrifugation as described in our previous reports^36-38. In brief, the buffy coat was spun at 3000 rotations per min (rpm) for 15 min to separate the blood cells and the plasma. The heat inactivated serum was filtered for future use.\nThe adherent monocytic cells were detached and seeded onto tissue culture plates and incubated for another 7-14 days in order to differentiate the primary blood monocytic cells to primary blood macrophages (PBMac).\nCulture supernatants of the LPS-treated PBMac, with or without B22EES1-8-3 pretreatment, were collected at different time intervals and stored at −70° C. The levels of the secreted TNF-α were measured by ELISA kits specific for the cytokine (R&D system, Minneapolis, Minn.).\nTo confirm the activities of Cim A in suppressing TNF-α production, Cim A was incubated with PBMac for 24 hr prior the addition of LPS at concentrations of 1 ng/mL and 10 ng/mL for 24 hr. The culture supernatants were collected and measured by ELISA for the level of secreted TNF-α.\nTo further compare the efficiency of Cim A with existing drugs, dexamethasone, a potent immunosuppressive corticosteroid, was used as a prototype. PBMac were treated with dexamethasone for 24 hr prior to the addition of LPS at concentrations of 1 ng/mL and 10 ng/mL for 24 hr."}, "[2]": {"test_system": "5-LOX", "assay": "5-LOX inhibitor screening assay (Cayman kit)", "assay_type": "biochemical", "conditions": "12.5, 25 and 50 μg/ml, linoleic acid substrate, 5 min incubation, FIG. 1A", "description": "The 5-LOX inhibition assay was performed using Cayman's Lipoxygenase Inhibitor Screening Assay Kit (Cayman Chemical Company, Ann Arbor, Mich.) according to the manufacturer's instructions. The 5-LOX enzyme and Linoleic acid (Substrate) were added together in the presence of DMSO (Control) and Cim A at a concentration ranging from 12.5 to 50 μg/ml. After incubation for 5 min, developing agents were added. The production of hydroperoxides was measured and quantified with the use of a microplate reader at wavelength of 490 nm. The 5-LOX enzymatic activity is calculated as nmol/min/ml.\nBriefly, 5-LOX inhibition assay was performed by using Cayman's lipoxygenase inhibitor screening assay kit (Cayman Chemical Company, Ann Arbor, Mich.) according to the manufacturer's instructions. The 5-LOX and linoleic acid (substrate) were added simultaneously into dimethyl sulfoxide (DMSO) (Control) or Cim A at a concentration of 12.5, 25, and 50 μg/ml, respectively. After incubation for 5 min, developing reagents for the 5-LOX inhibition assay were added. Hydroperoxide production was measured using a microplate reader at a wavelength of 490 nm. The 5-LOX enzymatic activity is calculated as nmol/min/ml."}, "[3]": {"test_system": "leukotriene B4 (LTB4) production", "assay": "Leukotriene B4 production in activated human blood mononuclear cells", "assay_type": "cell-based", "conditions": "25 or 50 μg/ml for 1 hour, then calcium ionophore A23187 30 min, PBMC, FIG. 1B", "description": "Freshly isolated human blood mononuclear cells (PBMC) (1×10^7) were pre-treated with 0.05% DMSO or Cim A (25 or 50 μg/ml) for 1 h, followed by addition of 5 μM Calcium ionophore A23187 (Sigma Aldrich, St. Louis, Mo.) for 30 min. After centrifugation for 1 min, the supernatants were collected. The level of leukotriene B4 (LTB4) was measured using LTB4 parameter assay kit (R&D Systems, Minneapolis, Minn.).\nThis Example investigates the effects of Cim A on LTB4 production. Briefly, freshly isolated human blood mononuclear cells (1×10^7) were pretreated with 0.05% DMSO or Cim A (25 or 50 μg/ml) for 1 hour, followed by the addition of calcium ionophore A23187 at a concentration of […] (Sigma Aldrich, St. Louis, Mo.) for 30 min. After centrifugation for 1 min, the supernatant was collected. The level of leukotriene B4 (LTB4) was measured by using a LTB4 assay kit (R&D Systems, Minneapolis, Minn.)."}, "[4]": {"test_system": "ERK1/2", "assay": "LPS-induced phosphorylation of ERK1/2 in PBMac (Western blot)", "assay_type": "cell-based, human", "conditions": "140 μM for 24 h prior to 10 ng/mL LPS for 15 min", "description": "FIGS. 7A-7C show the effects of Cim A (B22EES1-8-3) on LPS-induced phosphorylation (phospho-) of ERK1/2 and p38 MAP kinases, and nuclear translocation of NF-KB p65. PBMac were incubated with B22EES1-8-3 (140 μM) for 24 h prior to the addition of 10 ng/mL LPS for an additional 15 min. Cytoplasmic (A, B) and nuclear (C) proteins were harvested for Western Blotting: (A) Cytoplasmic proteins: phospho-ERK1/2 and total ERK1/2. (B) Cytoplasmic proteins: phospho-p38 and total p38 kinase. (C) Nuclear proteins: upper panel, NF-κB p65 and lamin B; lower panel, the intensity of corresponding lanes in the gel photograph of NF-κB p65 was shown. […]\nWhole cell lysate (20 μg) or nuclear protein (2 μg) were separated by sodium dodecyl sulfate polyacrylamide gel electrophoresis (SDS-PAGE) and transferred to nitrocellulose membranes for probing overnight with the respective antibodies specific for the phosphorylated or total form of ERK1/2 and p38 MAPK (Cell Signaling Technology, Beverly, Mass.), NF-KB p65 protein and lamin B (Santa Cruz Biotechnology, Santa Cruz, Calif.). […] In order to quantify the results from the Western blots, the gels were scanned and the intensity of the bands was analyzed by a computer program Quantity One from BioRad. […]"}}, "data": [{"smiles": "C[C@@H]1C[C@H]2[C@@H]3CCC4=CC(=O)C=C[C@]4(C)[C@@]3(F)[C@@H](O)C[C@]2(C)[C@@]1(O)C(=O)CO", "note": "[dexamethasone, Dexamethasone, reference compound]", "values": [{"measurement": "inhibition at 1.3 µM", "setting": "[1]; 1.3 μM for 24 hr prior to LPS for 24 hr", "value": "32 ± 7.5", "unit": "%"}, {"measurement": "inhibition at 5.1 µM", "setting": "[1]; 5.1 μM for 24 hr prior to LPS for 24 hr", "value": "25 ± 6.3", "unit": "%"}]}, {"smiles": "COc1ccc(/C=C/C(=O)OCC(=O)Cc2ccc(O)c(O)c2)cc1O", "note": "[Cim A, Cimiracemate A]", "values": [{"measurement": "5-LOX enzymatic activity (hydroperoxide production)", "setting": "[2]", "value": "potently suppressed 5-LOX activity in a dose-dependent manner"}, {"measurement": "production of LTB4", "setting": "[3]", "value": "inhibits the production of LTB4 in a dose-dependent manner"}, {"measurement": "inhibition at 140 µM", "setting": "[1]; 140 μM for 24 hr prior to LPS 1 ng/mL for 24 hr", "value": "47 ± 19", "unit": "%"}, {"measurement": "inhibition at 140 µM", "setting": "[1]; 140 μM for 24 hr prior to LPS 10 ng/mL for 24 hr", "value": "58 ± 30", "unit": "%"}, {"measurement": "LPS-induced phosphorylation of ERK1/2", "setting": "[4]", "value": "suppressed"}]}]}
